Where two headings read alike, the source gives them in different places.
Columns and labels:
hDP/Gqs5 = biological target: T1, hDP/Gqs5 (Homo sapiens, UniProt Q13258); assay: FLIPR calcium signal, hDP; type: cell-based
T1 construct: expressed in transfected cells; host or cells: HEK-293(EBNA)
T1 sequence (Q13258 1-359): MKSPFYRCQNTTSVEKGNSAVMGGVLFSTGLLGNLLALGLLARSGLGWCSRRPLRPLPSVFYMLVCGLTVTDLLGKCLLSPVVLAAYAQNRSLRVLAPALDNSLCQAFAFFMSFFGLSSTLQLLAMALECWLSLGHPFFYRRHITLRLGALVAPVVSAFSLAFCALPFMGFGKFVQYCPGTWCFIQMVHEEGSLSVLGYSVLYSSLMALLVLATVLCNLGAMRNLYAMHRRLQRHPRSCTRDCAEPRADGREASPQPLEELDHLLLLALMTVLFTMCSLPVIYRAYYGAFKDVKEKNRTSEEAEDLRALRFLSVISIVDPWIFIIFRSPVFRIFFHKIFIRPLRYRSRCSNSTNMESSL
Protocol: (§1) HEK-293(EBNA) cells, stably expressing one type or subtype of recombinant human prostaglandin receptors (prostaglandin receptors expressed: hDP/Gqs5; hEP1; hEP2/Gqs5; hEP3A/Gqi5; hEP4/Gqs5; hFP; hIP; hTP), were cultured in 100 mm culture dishes in high-glucose DMEM medium containing 10% fetal bovine serum, 2 mM 1-glutamine, 250 μg/ml geneticin (G418) and 200 μg/ml hygromycin B as selection markers, and 100 units/ml penicillin G, 100 μg/ml streptomycin and 0.25 μg/ml amphotericin B. • (b) Calcium Signal Studies on the FLIPR™
(§2) Cells were seeded at a density of 5×10^4 cells per well in Biocoat® Poly-D-lysine-coated black-wall, clear-bottom 96-well plates (Becton-Dickinson) and allowed to attach overnight in an incubator at 37° C. Cells were then washed two times with HBSS-HEPES buffer (Hanks Balanced Salt Solution without bicarbonate and phenol red, 20 mM HEPES, pH 7.4) using a Denley Cellwash plate washer (Labsystems). After 45 minutes of dye-loading in the dark, using the calcium-sensitive dye Fluo-4 AM at a final concentration of 2 μM, plates were washed four times with HBSS-HEPES buffer to remove excess dye leaving 100 μl in each well. Plates were re-equilibrated to 37° C. for a few minutes.
(§3) Cells were excited with an Argon laser at 488 nm, and emission was measured through a 510-570 nm bandwidth emission filter (FLIPR™, Molecular Devices, Sunnyvale, Calif.). Drug solution was added in a 50 μl volume to each well to give the desired final concentration. The peak increase in fluorescence intensity was recorded for each well. On each plate, four wells each served as negative (HBSS-HEPES buffer) and positive controls (standard agonists: BW245C (hDP); PGE2 (hEP1; hEP2/Gqs5; hEP3A/Gqi5; hEP4/Gqs5); PGF2α (hFP); carbacyclin (hIP); U-46619 (hTP), depending on receptor). The peak fluorescence change in each drug-containing well was then expressed relative to the controls.
(§4) Compounds were tested in a high-throughput (HTS) or concentration-response (CoRe) format. In the HTS format, forty-four compounds per plate were examined in duplicates at a concentration of 10^−5 M. To generate concentration-response curves, four compounds per plate were tested in duplicates in a concentration range between 10^−5 and 10^−11 M. The duplicate values were averaged. In either, HTS or CoRe format each compound was tested on at least 3 separate plates using cells from different passages to give an n≧3.

[1] = biological target: T2, HEK-EBNA cells expressing a PG EP2 receptor subtype (Homo sapiens, UniProt P43116); assay: cAMP assay, EP2; type: cell-based; conditions: unit inferred; read-out: EP2 data cAMP EC50
T2 construct: expressed in transfected cells; host or cells: HEK-EBNA
Protocol: A 384-well drug plate was prepared to contain 6 test compounds, PGE2 and cAMP in 16 serial dilutions in triplicate, using a Biomek station. HEK-EBNA cells expressing a target PG receptor subtype (EP2 or EP4) were suspended in a stimulation buffer (HBSS, 0.1% BSA, 0.5 mM IBMX and 5 mM HEPES, pH 7.4) in a density of 10^4 cells/5 μl. The reaction was initiated by mixing 5 μL drug dilutions with 5 μl of HEK-EBNA cells in a well, carried out for 30 min at room temperature, and followed by the addition of 5 μl anti-cAMP acceptor beads in the control buffer with Tween-20 (25 mM NaCl, 0.03% Tween-20, 5 mM HEPES, pH7.4). After 30 min in the dark at room temperature, the mixtures were incubated with 15 μl biotinylated-cAMP/strepavidin donor beads in Lysis/Detection buffer (0.1% BSA, 0.3% Tween-20 and 5 mM HEPES, pH7.4) for 45 min at the room temperature. Fluorescence changes were read using a Fusion-alpha HT microplate reader.

EP4 receptors = biological target: T3, EP4 receptors (Homo sapiens, UniProt P35408); assay: Radioligand binding ([3H]PGE2), EP4; conditions: unit inferred; read-out: EP4 data KI
T3 construct: expressed in transfected cells; host or cells: HEK-293
Protocol: (§5) HEK-293 cells stably expressing the human or feline FP receptor, or EP1, EP2, or EP4 receptors were washed with TME buffer, scraped from the bottom of the flasks, and homogenized for 30 sec using a Brinkman PT 10/35 polytron. TME buffer was added to achieve a final 40 ml volume in the centrifuge tubes (the composition of TME is 100 mM TRIS base, 20 mM MgCl2, […]; 10N HCl is added to achieve a pH of 7.4).
(§6) The cell homogenate was centrifuged at 19000 r.p.m. for 20 min at 4° C. using a Beckman Ti-60 rotor. The resultant pellet was resuspended in TME buffer to give a final 1 mg/ml protein concentration, as determined by Biorad assay. Radioligand binding competition assays vs. [^3H-]17 —phenyl PGF2α (5 nM) were performed in a 100 μl volume for 60 min. Binding reactions were started by adding plasma membrane fraction. The reaction was terminated by the addition of 4 ml ice-cold TRIS-HCl buffer and rapid filtration through glass fiber GF/B filters using a Brandel cell harvester. The filters were washed 3 times with ice-cold buffer and oven dried for one hour.
(§7) [^3H-] PGE2 (specific activity 180 Ci mmol) was used as the radioligand for EP receptors. [^3H] 17-phenyl PGF2α was employed for FP receptor binding studies. Binding studies employing EP1, EP2, EP4 and FP receptors were performed in duplicate in at least three separate experiments. A 200 μl assay volume was used. Incubations were for 60 min at 25° C. and were terminated by the addition of 4 ml of ice-cold 50 mM TRIS-HCl, followed by rapid filtration through Whatman GF/B filters and three additional 4 ml washes in a cell harvester (Brandel). Competition studies were performed using a final concentration of 5 nM [^3H]—PGE2, or 5 nM [^3H] 17-phenyl PGF2α and non-specific binding determined with 10^−5M of unlabeled PGE2, or 17-phenyl PGF2α, according to receptor subtype studied.

hEP2/Gqs5 = biological target: T4, hEP2/Gqs5 (Homo sapiens, UniProt P43116); assay: FLIPR calcium signal, hEP2; type: cell-based; conditions: unit inferred; other columns of the table in nM; read-out: EP2 data flipr EC50
T4 construct: expressed in transfected cells; host or cells: HEK-293(EBNA)
Protocol: as §1, §2, §3, §4

human EP2 receptors = biological target: T5, human EP2 receptors (Homo sapiens, UniProt P43116); assay: Competition radioligand binding ([3H]PGE2), EP2; conditions: unit inferred; read-out: EP2 data Ki
T5 construct: expressed in transfected cells; host or cells: HEK 293
Protocol: Competition binding experiments were performed in a medium containing Hank's balanced salt solution, […], membranes (˜60 μg protein) or 2×10^5 cells from HEK 293 cells stably expressing human EP2 receptors, [^3H]PGE2 (10 nM) and various concentrations of test compounds in a total volume of 300 μl. Reaction mixtures were incubated at 23° C. for 60 min, and were filtered over Whatman GF/B filters under vacuum. Filters were washed three times with 5 ml ice-cold buffer containing 50 mM Tris/HCl (pH 7.3). Non-specific binding was estimated in the presence of excess unlabeled PGE2 (10 μM). Binding data fitted to the binding model for a single class of binding sites, using nonlinear regression analysis. IC50 values thus obtained were converted to Ki using the equation of Ki=(IC50/(1+[L]/KD) where [L] represents PGE2 concentration (10 nM) and KD the dissociation constant for [^3H]PGE2 at human EP2 receptors (40 nM).
as §5, §6, §7

hEP4/Gqs5 = biological target: T6, hEP4/Gqs5 (Homo sapiens, UniProt P35408); assay: FLIPR calcium signal, hEP4; type: cell-based; conditions: unit inferred; read-out: EP4 data flipr EC50
T6 construct: expressed in transfected cells; host or cells: HEK-293(EBNA)
Protocol: as §1, §2, §3, §4

hEP3A/Gqi5 = biological target: T7, hEP3A/Gqi5 (Homo sapiens, UniProt P43115); assay: FLIPR calcium signal, hEP3A; type: cell-based; conditions: read-out: Other Receptors EC50 hEP3A
T7 construct: expressed in transfected cells; host or cells: HEK-293(EBNA)
T7 sequence (P43115 1-390): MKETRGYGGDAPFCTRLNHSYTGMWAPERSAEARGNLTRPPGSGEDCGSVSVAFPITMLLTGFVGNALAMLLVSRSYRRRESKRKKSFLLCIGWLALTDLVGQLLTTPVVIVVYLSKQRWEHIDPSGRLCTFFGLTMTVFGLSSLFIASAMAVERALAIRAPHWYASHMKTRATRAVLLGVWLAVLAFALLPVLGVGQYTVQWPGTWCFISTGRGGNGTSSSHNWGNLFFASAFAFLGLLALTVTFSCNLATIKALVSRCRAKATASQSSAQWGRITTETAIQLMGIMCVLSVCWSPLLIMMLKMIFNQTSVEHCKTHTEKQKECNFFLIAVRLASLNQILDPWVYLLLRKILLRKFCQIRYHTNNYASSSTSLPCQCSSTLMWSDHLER
Protocol: as §1, §2, §3, §4

T3 sequence (P35408 whole entry): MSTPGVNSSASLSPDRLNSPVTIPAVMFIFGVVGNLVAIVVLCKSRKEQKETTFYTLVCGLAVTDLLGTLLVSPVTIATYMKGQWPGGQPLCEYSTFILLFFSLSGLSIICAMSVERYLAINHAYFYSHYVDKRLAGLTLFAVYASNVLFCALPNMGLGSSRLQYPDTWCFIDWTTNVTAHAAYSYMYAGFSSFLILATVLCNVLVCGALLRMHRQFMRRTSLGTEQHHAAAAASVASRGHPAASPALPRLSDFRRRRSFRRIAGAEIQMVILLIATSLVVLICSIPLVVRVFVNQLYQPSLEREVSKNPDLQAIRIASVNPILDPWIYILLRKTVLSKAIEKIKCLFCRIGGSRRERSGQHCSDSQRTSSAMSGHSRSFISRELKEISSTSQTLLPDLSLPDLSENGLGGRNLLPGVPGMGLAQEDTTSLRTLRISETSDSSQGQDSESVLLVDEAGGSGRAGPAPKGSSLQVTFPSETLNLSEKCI
T6 sequence (P35408 whole entry): as above
T4 sequence (P43116 whole entry): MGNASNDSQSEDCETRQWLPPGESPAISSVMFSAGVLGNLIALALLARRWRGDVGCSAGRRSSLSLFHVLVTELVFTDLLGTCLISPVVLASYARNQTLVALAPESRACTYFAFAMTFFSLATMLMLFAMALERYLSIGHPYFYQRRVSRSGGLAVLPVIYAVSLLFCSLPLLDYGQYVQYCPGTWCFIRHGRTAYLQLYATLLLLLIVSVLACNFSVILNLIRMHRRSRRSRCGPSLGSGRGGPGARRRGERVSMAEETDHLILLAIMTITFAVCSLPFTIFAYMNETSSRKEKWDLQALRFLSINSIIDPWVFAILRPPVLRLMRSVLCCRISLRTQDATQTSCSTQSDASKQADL
T5 sequence (P43116 whole entry): as above
T2 sequence (P43116 whole entry): as above

| Compound | EC50 (hDP/Gqs5; FLIPR Ca2+ signal, HEK-293(EBNA), read-out: FUNCTIONAL EC50 HDP) [nM] | EC50 [1] [nM] | Ki (EP4 receptors) [nM] | EC50 (hEP2/Gqs5) [nM] | Ki (human EP2 receptors) [nM] | EC50 (hEP4/Gqs5) [nM] | EC50 (hEP3A/Gqi5) [nM] | EC50 (hDP/Gqs5; read-out: FUNCTIONAL Ca2+ EC50 HDP) [nM] |
| --- | --- | --- | --- | --- | --- | --- | --- | --- |
| CCCC1(C(O)c2cccc(C3C(O)CC(=O)C3Cc3cccc(OCC(=O)O)c3)c2)CCC1 (stereo not drawn) | > 10000 |  |  |  |  |  |  |  |
| CCCCCC(O)c1ccc(N2C(=O)CC[C@@H]2COCc2cccc(C(=O)O)c2)cc1 (stereo partly drawn) |  | 517 | > 10000 | > 10000 |  |  |  |  |
| CCCC(O)c1ccc(N2C(=O)CC[C@@H]2COCc2ccc(C(=O)O)s2)cc1 (stereo partly drawn) |  | 27 | > 10000 | 426 | 1640 |  |  |  |
| CCCCCC(=O)c1ccc(N2C(=O)CC[C@@H]2COCc2ccc(C(=O)O)s2)cc1 |  | 8 | > 10000 | 215 | 163 |  |  |  |
| CC(C)(C)c1ccc(N2C(=O)CC[C@@H]2COCCCCC(=O)O)cc1 |  |  | > 10000 | > 10000 |  | > 10000 |  |  |
| CC(C)(C)c1ccc(N2C(=O)CC[C@@H]2COCc2cccc(C(=O)O)c2)cc1 |  |  | > 10000 | > 10000 |  | > 10000 |  |  |
| CCCCCC(O)c1ccc(N2C(=O)CC[C@@H]2COCc2ccc(C(=O)O)o2)cc1 (stereo partly drawn) |  | 26 | > 10000 | 388 | 2030 |  | 1930 |  |
| CC(C)C(O)c1ccc(N2C(=O)CC[C@@H]2COCc2ccc(C(=O)O)o2)cc1 (stereo partly drawn) |  | 1220 | > 10000 | 7670 | > 10000 |  |  |  |
| O=C(O)c1ccc(COC[C@H]2CCC(=O)N2c2ccc(C(O)Cc3ccccc3)cc2)o1 (stereo partly drawn) |  | 148 | > 10000 | 1230 | 2290 |  |  |  |
| CCCCC(O)c1ccc(N2C(=O)CC[C@@H]2COCc2ccc(C(=O)O)s2)cc1 (stereo partly drawn) |  | 8 | > 10000 | 212 | 387 |  |  |  |
| CCCCCC(O)c1ccc(N2C(=O)CC[C@@H]2COCc2ccc(C(=O)O)s2)cc1 (single isomer, unassigned) [drawing 149] |  | 1.5 | 6030 |  | 116 | > 10000 | 1200 |  |
| CCCCCC(O)c1ccc(N2C(=O)CC[C@@H]2CCCc2ccc(C(=O)O)s2)cc1 (single isomer, unassigned) [drawing 150] |  |  | > 10000 | 6 |  | > 10000 | 12 |  |
| CCCCCCC(O)c1ccc(N2C(=O)CC[C@@H]2COCc2ccc(C(=O)O)s2)cc1 (single isomer, unassigned) [drawing 153] |  | 4 | 3290 |  |  |  | 621 |  |
| CCCCCCC(O)c1ccc(N2C(=O)CC[C@@H]2COCc2ccc(C(=O)O)s2)cc1 (single isomer, unassigned) [drawing 181] |  | 4 | 3290 | 49 | 201 |  | 621 |  |
| CCCCCC(O)c1ccc(N2C(=O)CC[C@@H]2/C=C/Cc2ccc(C(=O)O)s2)cc1 (stereo partly drawn) [drawing 144] |  | 15 | > 10000 | 226 | 1380 |  |  |  |
| CCCC1([C@@H](O)c2ccc([C@H]3CCC(=O)[C@@H]3C/C=C\CCCC(=O)O)cc2)CCC1 [drawing 191] |  |  |  |  |  |  |  | > 10000 |

Source: US7799821B2, “Therapeutic compounds” (Allergan, Inc., priority 2004, dated 2010)
